Laboratory results reported in PubChem BioAssay (NCI).
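48-hour exposure; five concentrations; linearly interpolated endpoints. At the GI50, growth is halved. Definition used: TGI = concentration required for complete inhibition of growth.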

Legend:
Assay in all cases: NCI tumour cell line growth inhibition, 48 h
BT-549 breast = test system: BT-549 breast
CCRF-CEM leukemia = test system: CCRF-CEM leukemia
HCT-116 colon = test system: HCT-116 colon
K-562 leukemia = test system: K-562 leukemia
NCI-H23 lung = test system: NCI-H23 lung
RPMI-8226 leukemia = test system: RPMI-8226 leukemia
SK-MEL-28 melanoma = test system: SK-MEL-28 melanoma
SNB-19 CNS = test system: SNB-19 CNS
MALME-3M melanoma = test system: MALME-3M melanoma

Row | Structure (SMILES) | GI50 (BT-549 breast) [µM] | TGI (BT-549 breast) [µM] | GI50 (CCRF-CEM leukemia) [µM] | TGI (CCRF-CEM leukemia) [µM] | GI50 (HCT-116 colon) [µM] | TGI (HCT-116 colon) [µM] | GI50 (K-562 leukemia) [µM] | TGI (K-562 leukemia) [µM] | GI50 (NCI-H23 lung) [µM] | TGI (NCI-H23 lung) [µM] | GI50 (RPMI-8226 leukemia) [µM] | TGI (RPMI-8226 leukemia) [µM] | GI50 (SK-MEL-28 melanoma) [µM] | TGI (SK-MEL-28 melanoma) [µM] | GI50 (SNB-19 CNS) [µM] | TGI (SNB-19 CNS) [µM] | TGI (MALME-3M melanoma) [µM] | GI50 (MALME-3M melanoma) [µM]
1 | COc1ccc2c(c1)N(CCO)C1=C(C(=O)OC1)C2c1ccccc1 (configuration not stated) | 4.03 | > 50 | 1.91 | > 50 | 1.97 | 15.6 | 1.23 | > 50 | 1.94 | > 50 | 1.78 | > 50 | 2.98 | > 50 | 2.32 | > 50 |  | 
2 | Cc1ccc(NC(=O)CC/C(CC(=O)C(C)(C)C)=N\Nc2ccc([N+](=O)[O-])cc2[N+](=O)[O-])cc1C |  |  |  | 98 |  | > 100 |  | > 100 |  | > 100 |  |  |  | > 100 |  | > 100 |  | 
3 | Nc1nc(N)c(N=Nc2ccc(C(=O)O)c(O)c2)c(N)n1 |  | > 100 |  | > 100 |  | > 100 |  | > 100 |  | > 100 |  | > 100 |  | > 100 |  | > 100 | > 100 | 
4 | N#Cc1cc(NC(=O)c2ccccc2)c(=O)n2c1[nH]c1ccccc12 |  |  |  | > 100 |  | > 100 |  | > 100 |  | 57.7 |  | 38.3 |  | 67.7 |  | 74.7 | 83 | 
5 | O=C1C2ON3c4ccccc4C(=O)C3(c3ccccc3)C2C(=O)N1c1ccccc1 (configuration not stated) |  |  |  | > 100 |  | > 100 |  | > 100 |  | > 100 |  | > 100 |  | > 100 |  | > 100 | > 100 | 
6 | Cc1c(C2Cc3ccccc3N2)c2ccccc2n1C (configuration not stated) |  |  |  | > 100 |  | > 100 |  | > 100 |  | > 100 |  |  |  |  |  | > 100 | > 100 | 
7 | CCOC(=O)C1SC(=Nc2ccc(Cl)cc2C)N=C1C (configuration not stated) |  |  |  |  |  | 28.4 |  | 51.3 |  | 34.8 |  |  |  | 73.5 |  | > 100 | 39.2 | 
8 | COCOCC[C@@H]1CC=CC(NC(=O)OCc2ccccc2)C1/C=C/C(=O)CCC1OCCO1 (some centres not stated) |  |  |  | 75.7 |  | 33.1 |  | > 100 |  | 97.8 |  | 63.5 |  | > 63.3 |  | > 100 | > 100 | 
9 | CN(C)CCNC(=O)c1cccc2ncc(-c3ccccc3)nc12 |  |  |  | 56.8 |  | 22 |  | 61.9 |  | 32.2 |  |  |  | 36.1 |  | 78.7 | 26.5 | 
10 | COc1ccc2c(c1)C(=O)c1c-2n(CCCN)c(=O)c2cc(OC)c(OC)cc12 |  |  | < 0.01 |  | 0.0287 | 0.181 |  |  |  |  |  |  | 8.19 | 29.1 |  |  | 3 | 1.14
11 | O=C(O)CCSC(=S)Nc1cccc(F)c1 |  |  |  |  |  | > 100 |  | > 100 |  | > 100 |  | > 100 |  | 83.1 |  | > 100 | > 100 | 
12 | C/C(CCn1[nH]c(=O)ccc1=O)=N\Nc1ccc([N+](=O)[O-])cc1[N+](=O)[O-] |  |  |  | > 100 |  | > 100 |  | > 100 |  | > 100 |  | > 100 |  | > 100 |  | > 100 | > 100 | 
13 | CCCN1C(=O)/C(=C/c2ccc(O)cc2)SC1=Nc1ccc(OC)cc1 | 15.3 | 34.9 |  |  | 14.2 | 29.3 | 12.5 | > 100 | 16.2 | 32.4 | 12.4 | 42 | 19.4 | 41 | 19.6 | 45.5 |  | 
14 | CC(=N)N(C)O |  |  |  | 53.1 |  | > 100 |  | > 100 |  | > 100 |  | > 100 |  | > 100 |  |  | > 100 | 
15 | C/C=C(/C)C(=O)OC1C=C(CO)C(=O)C(OC(=O)C(C)(O)C(C)Cl)C1C(C)C (configuration not stated) | 1.95 | 4.71 | 0.327 | 2.05 | 1.07 | 2.49 | 0.396 | 12.5 | 1.84 | 4.42 | 0.429 | 2.65 | 1.46 | 2.98 | 1.48 | 2.91 | 1.85 | 0.474
16 | COC(=O)C(C(=O)C(=O)Nc1ccc(OC)cc1[N+](=O)[O-])c1nc2cc(C)c(C)cc2[nH]c1=O (configuration not stated) |  |  |  | > 100 |  | > 100 |  | > 100 |  | > 100 |  |  |  | > 100 |  | > 100 | > 100 | 
